Legend:
[1] = biological target: T1, wild type human RORγt LBD fused to the DNA binding domain of the GAL4 protein (Homo sapiens, UniProt P51449); assay: RORγt reporter assay; type: cell-based; conditions: HEK293T cells
T1 construct: expressed in transfected cells; host or cells: HEK293T
T1 sequence (P51449 258-518): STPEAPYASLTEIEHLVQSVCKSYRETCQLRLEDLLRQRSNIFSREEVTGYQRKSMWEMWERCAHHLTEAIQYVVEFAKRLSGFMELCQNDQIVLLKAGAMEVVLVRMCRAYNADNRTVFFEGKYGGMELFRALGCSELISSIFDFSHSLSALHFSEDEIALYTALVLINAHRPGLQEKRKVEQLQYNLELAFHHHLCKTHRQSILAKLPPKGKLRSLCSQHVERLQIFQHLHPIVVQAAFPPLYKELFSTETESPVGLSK
From the text: A reporter assay was used to test functional activity of RORγt modulatory compounds on transcriptional activation driven by the RORγt LBD. Cells used in the assay were co-transfected with two constructs. The first construct, pBIND-RORγt LBD, contained the wild type human RORγt LBD fused to the DNA binding domain of the GAL4 protein. The second construct, pGL4.31 (Promega Cat no. C935A), contained multiple GAL4 responsive DNA elements upstream of firefly luciferase. […] The mutant construct was called pBIND-RORγt-AF2.
The pBIND vector contains the GAL4 DNA Binding Domain (GAL4 DBD) and the renilla luciferase gene under control of the SV40 promoter. […]
The reporter assay was performed by transiently transfecting HEK293T cells with 5 μg of pBIND-RORγt LBD or pBIND-RORγt LBD-AF2 and 5 μg pGL4.31 (Promega Cat no. C935A) using Fugene 6 (Invitrogen Cat no. E2691) at a 1:6 ratio of DNA: Fugene 6 in a T-75 flask in which cells were at least 80% confluent. […] Dual Glo Luciferase Reagent (50 μL/well) was then added and firefly luciferase luminescence was read on an Envision after a ten minute incubation. Finally, Stop and Glo reagent (50 μL/well) was added and renilla luciferase luminescence was read on an Envision after a ten minute incubation. To calculate the effect of compounds on RORγt activity, the ratio of firefly to renilla luciferase was determined and plotted against compound concentration. […]

[2] = system: IL-17 production by CD4 T cells; assay: Human Th17 assay; type: cell-based; conditions: 3 days
From the text: The human Th17 assay tests the effect of RORγt modulatory compounds on IL-17 production by CD4 T cells under conditions which favor Th17 differentiation.
Total CD4^+ T cells were isolated from the peripheral blood mononuclear cells (PBMC) of healthy donors using a CD4^+ T cell isolation kit II, following the manufacturer's instructions (Miltenyi Biotec). Cells were resuspended in a medium of RPMI-1640 supplemented with 10% fetal bovine serum, penicillin, streptomycin, glutamate, and β-mercaptoethanol and were added to 96-well plates at 1.5×10^5 per 100 μL per well. 50 μL of compound at titrated concentrations in DMSO were added into each well at final DMSO concentration at 0.2%. Cells were incubated for 1 hour, then 50 μL of Th17 cell differentiation medium was added to each well. The final concentrations of antibodies and cytokines (R&D Systems) in differentiation medium were: 3×10^6/mL anti-CD3/CD28 beads (prepared using human T cell activation/expansion kit, Miltenyi Biotec), 10 μg/mL anti-IL4, 10 μg/mL anti-IFNγ, 10 ng/mL IL1β, 10 ng/mL IL23, 50 ng/mL IL6, 3 ng/mL TGFβ and 20 U/mL IL2. Cells were cultured at 37° C. and 5% CO2 for 3 days. Supernatants were collected and the accumulated IL-17 in culture was measured by using MULTI-SPOT® Cytokine Plate following manufacture's instruction (Meso Scale Discovery). The plate was read using Sector Imager 6000, and IL-17 concentration was extrapolated from the standard curve. The IC50s were determined by GraphPad.

[3] = biological target: T2, human RORγt ligand binding domain (RORγt LBD) (Homo sapiens, UniProt P51449); assay: RORγt ThermoFluor assay
T2 construct: His-tag (N); TurboTEV protease cleavage site (ENLYFQG) (N); made in house; host or cells: E. coli (pHIS1, modified pET vector)
T2 sequence (P51449 with tags, fused parts or gaps): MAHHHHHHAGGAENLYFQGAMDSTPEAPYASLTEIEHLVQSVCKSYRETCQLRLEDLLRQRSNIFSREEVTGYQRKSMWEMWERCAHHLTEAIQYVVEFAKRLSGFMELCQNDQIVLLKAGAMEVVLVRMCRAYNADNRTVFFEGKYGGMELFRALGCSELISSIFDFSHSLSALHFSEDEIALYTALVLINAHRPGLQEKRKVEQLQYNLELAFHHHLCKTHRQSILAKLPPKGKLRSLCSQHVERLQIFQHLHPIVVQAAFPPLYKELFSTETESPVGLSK
Procedure: This approach is applicable to a wide variety of systems, and rigorous in theoretical interpretation through quantitation of equilibrium binding constants (KD).
The shift in the melting point described as a ΔTm is proportional to the concentration and affinity of the ligand. The compound potency may be compared as a rank order of either ΔTm values at a single compound concentration or in terms of KD values, estimated from concentration response curves.
ThermoFluor® experiments were carried out using instruments owned by Janssen Research and Discovery, L.L.C. through its acquisition of 3-Dimensional Pharmaceuticals, Inc. 1,8-ANS (Invitrogen) was used as a fluorescent dye. […]
Bar-coded assay plates are robotically loaded onto a thermostatically controlled PCR-type thermal block and then heated at a typical ramp-rate of 1° C./min for all experiments. Fluorescence was measured by continuous illumination with UV light (Hamamatsu LC6) supplied via fiber optic and filtered through a band-pass filter (380-400 nm; >6 OD cutoff). Fluorescence emission of the entire 384-well plate was detected by measuring light intensity using a CCD camera (Sensys, Roper Scientific) filtered to detect 500±25 nm, resulting in simultaneous and independent readings of all 384 wells. […]

Row | SMILES | IC50 [2] [nM] | other results
1 | CCN(CC)c1nc2ccc(C(O)(c3ccccn3)c3cncn3C)cc2c(C#N)c1Oc1ccccc1 (single isomer, unassigned) [Example 5c] | – | inhibition at 6 µM ([1]; HEK-293T, 6 μM): 103%
2 | Cn1cncc1C(O)(c1ccc(C(F)(F)F)nc1)c1ccc2nc(N3CCCC3)c(Oc3ccc(C#N)cc3)c(Cl)c2c1 (stereo not drawn) [Example 2a, 4-((4-Chloro-6-(hydroxy(1-methyl-1H-imidazol-5-yl)(6-(trifluoromethyl)pyridin-3-yl)methyl)-2-(pyrrolidin-1-yl)quinolin-3-yl)oxy)benzonitrile] | 88 | –
3 | Cn1cncc1C(O)(c1ccc(C(F)(F)F)nc1)c1ccc2nc(N3CCCC3)c(Oc3ccc(C#N)cc3)c(Cl)c2c1 (stereo not drawn) [Example 2b] | 320 | –
4 | Cn1cncc1C(O)(c1ccc(C(F)(F)F)nc1)c1ccc2nc(N3CCCC3)c(Oc3ccc(C#N)cc3)c(Cl)c2c1 (stereo not drawn) [Example 2c] | 100 | –
5 | CC(C)(C)OC(=O)N(c1ccccc1)c1c(Cl)nc2ccc(C(O)(c3cccnc3)c3cccc(Cl)c3)cc2c1Cl (stereo not drawn) [Example 7, tert-Butyl (2,4-dichloro-6-((3-chlorophenyl)(hydroxy)(pyridin-3-yl)methyl)quinolin-3-yl)(phenyl)carbamate] | – | IC50 [1]: 1400 nM; Kd [3]: 23000 nM

From patent US9328095B2, “Heteroaryl linked quinolinyl modulators of RORgammat” (Janssen Pharmaceutica NV, priority 2013, dated 2016)
